Literature values as cited in patent US11813363B1, “Concentrated nutritional or supplemental compound for intestinal, gut-brain axis and neurobiological homeostasis through calibrated absorption including neurotransmitter or any equilibrating compound release to treat or mitigate disease and co-morbidities, particularly obesity and malnourishment” (priority 2022, dated 2023).

Settings: oral ingestion; reddish-orange color of urine

time to visible urine color change after ingestion (earliest): ≥ 20 min | time to visible urine color change after ingestion (latest): within one hour
SMILES: Cl.Nc1ccc(/N=N/c2ccccc2)c(N)n1 [phenazopyridine, phenazopyridine hydrochloride]
